Test results from ChEMBL document CHEMBL1201862, “PubChem BioAssay data set” (2004).
Activity calls are given as the source filed them.

Key:
[1] = biological target: ATP-dependent translocase ABCB1 (Homo sapiens, UniProt P08183); test: inhibition of P-gp mediated JC-1 efflux – Jurkat-DNR cells, flow cytometry, dose response (AID 1689); format: functional
[2] = biological target: Broad substrate specificity ATP-binding cassette transporter ABCG2 (Homo sapiens, UniProt Q9UNQ0); test: blockers of JC-1 export by ABCG2 – Ig-MXP3 cells, flow cytometry, dose response (AID 1690); format: functional
[3] = biological target: T1, Sentrin-specific protease 1 (Homo sapiens, UniProt Q9P0U3); test: Dose response confirmation of small molecule inhibitors of the catalytic domain of the SUMO protease, SENP1 in a FRET assay.; format: functional; settings: read-out: IC50_Mean
T1 sequence (Q9P0U3 whole entry): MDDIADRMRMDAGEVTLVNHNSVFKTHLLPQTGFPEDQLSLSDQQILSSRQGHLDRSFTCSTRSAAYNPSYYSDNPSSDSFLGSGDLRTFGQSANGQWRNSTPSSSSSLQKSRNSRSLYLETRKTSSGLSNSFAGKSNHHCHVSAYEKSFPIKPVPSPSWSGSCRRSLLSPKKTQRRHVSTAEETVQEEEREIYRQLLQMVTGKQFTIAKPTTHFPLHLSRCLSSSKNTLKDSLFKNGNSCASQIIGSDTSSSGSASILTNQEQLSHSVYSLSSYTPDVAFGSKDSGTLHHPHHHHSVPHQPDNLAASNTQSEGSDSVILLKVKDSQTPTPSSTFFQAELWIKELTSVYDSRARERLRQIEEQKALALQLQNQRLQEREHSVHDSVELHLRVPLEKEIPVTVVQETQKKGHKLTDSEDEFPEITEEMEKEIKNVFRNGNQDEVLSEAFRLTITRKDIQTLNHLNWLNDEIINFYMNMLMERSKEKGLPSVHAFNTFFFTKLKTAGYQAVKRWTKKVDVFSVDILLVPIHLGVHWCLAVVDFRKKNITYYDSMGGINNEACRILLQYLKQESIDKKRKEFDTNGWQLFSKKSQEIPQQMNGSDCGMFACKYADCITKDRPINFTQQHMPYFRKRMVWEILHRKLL

[4] = biological target: T1, Sentrin-specific protease 1; test: SENP1 catalytic domain blockers, concentration series – biochemical, kinetic FRET, dose response (AID 651697); format: functional; settings: read-out: IC50_Mean
Beta Lactamase = Beta Lactamase (Pseudomonas aeruginosa, UniProt Q932Y6);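 further: confirmatory high-throughput screen measuring VIM-2 metallo-beta-lactamase inhibition by epi-absorbance in dose response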
Beta-lactamase [5] = biological target: T2, Beta-lactamase (Salmonella choleraesuis (strain SC-B67), UniProt Q5J463)
Beta-lactamase [6] = biological target: T3, Beta-lactamase (Pseudomonas aeruginosa, UniProt Q79MP6)
Beta-lactamase [7] = biological target: T3, Beta-lactamase; test: […] counterscreen for selective VIM-2 inhibitors: dose response biochemical high throughput screening assay to identify inhibitors of IMP-1 metallo-beta-lactamase.
Beta-lactamase [8] = biological target: T2, Beta-lactamase; test: Epi-absorbance-based counterscreen for selective VIM-2 inhibitors: dose response biochemical high throughput screening assay to identify inhibitors of TEM-1 serine-beta-lactamase.
Beta-lactamase [9] = biological target: T3, Beta-lactamase; test: inhibition of IMP-1 beta-lactamase activity – biochemical, epi-absorbance, selectivity assay for VIM-2 inhibitor project, dose response (AID 1920)

T3 sequence (Q79MP6 whole entry): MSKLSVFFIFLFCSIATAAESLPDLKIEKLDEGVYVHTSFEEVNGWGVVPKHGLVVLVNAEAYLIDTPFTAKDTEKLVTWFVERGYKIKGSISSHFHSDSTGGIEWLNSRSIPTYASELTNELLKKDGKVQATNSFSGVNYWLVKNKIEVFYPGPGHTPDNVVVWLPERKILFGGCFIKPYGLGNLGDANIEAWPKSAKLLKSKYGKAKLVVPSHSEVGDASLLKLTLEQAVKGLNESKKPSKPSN
T2 sequence (Q5J463 whole entry): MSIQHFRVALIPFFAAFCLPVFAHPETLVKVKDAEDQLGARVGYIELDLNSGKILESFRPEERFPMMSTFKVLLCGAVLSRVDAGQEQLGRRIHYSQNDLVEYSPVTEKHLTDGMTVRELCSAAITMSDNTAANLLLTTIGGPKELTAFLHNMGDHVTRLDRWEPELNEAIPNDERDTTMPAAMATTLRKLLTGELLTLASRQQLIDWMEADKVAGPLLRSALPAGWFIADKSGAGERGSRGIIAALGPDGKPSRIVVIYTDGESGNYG
ATP-dependent translocase ABCB1, sequence (P08183 whole entry): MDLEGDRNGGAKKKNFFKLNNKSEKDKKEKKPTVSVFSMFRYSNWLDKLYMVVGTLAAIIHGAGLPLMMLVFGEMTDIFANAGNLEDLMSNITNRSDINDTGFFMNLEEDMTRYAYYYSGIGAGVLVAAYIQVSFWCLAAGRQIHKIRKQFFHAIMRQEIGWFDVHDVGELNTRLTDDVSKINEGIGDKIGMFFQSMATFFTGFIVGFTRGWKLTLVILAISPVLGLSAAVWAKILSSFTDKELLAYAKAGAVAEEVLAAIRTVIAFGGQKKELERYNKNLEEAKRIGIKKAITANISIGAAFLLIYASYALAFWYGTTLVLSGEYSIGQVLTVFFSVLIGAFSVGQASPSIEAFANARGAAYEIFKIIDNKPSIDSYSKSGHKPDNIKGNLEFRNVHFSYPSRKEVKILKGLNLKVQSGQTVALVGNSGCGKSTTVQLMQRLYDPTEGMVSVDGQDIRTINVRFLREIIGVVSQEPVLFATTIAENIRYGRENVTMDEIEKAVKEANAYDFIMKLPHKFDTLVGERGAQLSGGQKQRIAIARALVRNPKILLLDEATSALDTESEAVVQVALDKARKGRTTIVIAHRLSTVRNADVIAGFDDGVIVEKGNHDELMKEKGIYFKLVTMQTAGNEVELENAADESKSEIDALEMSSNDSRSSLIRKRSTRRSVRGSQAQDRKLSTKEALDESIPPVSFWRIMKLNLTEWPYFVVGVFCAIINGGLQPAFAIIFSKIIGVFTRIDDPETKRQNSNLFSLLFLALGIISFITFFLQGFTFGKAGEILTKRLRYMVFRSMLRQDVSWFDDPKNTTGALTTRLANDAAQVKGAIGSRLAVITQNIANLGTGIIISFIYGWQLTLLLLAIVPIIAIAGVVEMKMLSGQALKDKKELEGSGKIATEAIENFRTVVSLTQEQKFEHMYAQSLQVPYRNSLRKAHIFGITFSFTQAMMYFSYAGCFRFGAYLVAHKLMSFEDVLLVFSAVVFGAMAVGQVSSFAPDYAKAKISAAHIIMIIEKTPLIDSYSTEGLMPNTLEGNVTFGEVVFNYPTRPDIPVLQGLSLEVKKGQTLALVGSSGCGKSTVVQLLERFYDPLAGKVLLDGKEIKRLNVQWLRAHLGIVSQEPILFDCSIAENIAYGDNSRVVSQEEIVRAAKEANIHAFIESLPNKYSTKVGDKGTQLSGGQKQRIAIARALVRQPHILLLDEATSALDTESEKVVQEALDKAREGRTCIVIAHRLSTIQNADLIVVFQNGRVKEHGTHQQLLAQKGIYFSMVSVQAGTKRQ
Beta Lactamase, sequence (Q932Y6 whole entry): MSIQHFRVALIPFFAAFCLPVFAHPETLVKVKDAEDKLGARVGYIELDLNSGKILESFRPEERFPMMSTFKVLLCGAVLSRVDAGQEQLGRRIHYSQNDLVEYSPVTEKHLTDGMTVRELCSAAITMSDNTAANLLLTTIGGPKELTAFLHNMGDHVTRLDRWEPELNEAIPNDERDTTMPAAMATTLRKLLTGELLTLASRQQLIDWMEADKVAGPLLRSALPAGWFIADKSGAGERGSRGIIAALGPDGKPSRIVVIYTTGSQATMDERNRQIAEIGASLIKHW
Broad substrate specificity ATP-binding cassette transporter ABCG2, sequence (Q9UNQ0 whole entry, the tested form may be a part): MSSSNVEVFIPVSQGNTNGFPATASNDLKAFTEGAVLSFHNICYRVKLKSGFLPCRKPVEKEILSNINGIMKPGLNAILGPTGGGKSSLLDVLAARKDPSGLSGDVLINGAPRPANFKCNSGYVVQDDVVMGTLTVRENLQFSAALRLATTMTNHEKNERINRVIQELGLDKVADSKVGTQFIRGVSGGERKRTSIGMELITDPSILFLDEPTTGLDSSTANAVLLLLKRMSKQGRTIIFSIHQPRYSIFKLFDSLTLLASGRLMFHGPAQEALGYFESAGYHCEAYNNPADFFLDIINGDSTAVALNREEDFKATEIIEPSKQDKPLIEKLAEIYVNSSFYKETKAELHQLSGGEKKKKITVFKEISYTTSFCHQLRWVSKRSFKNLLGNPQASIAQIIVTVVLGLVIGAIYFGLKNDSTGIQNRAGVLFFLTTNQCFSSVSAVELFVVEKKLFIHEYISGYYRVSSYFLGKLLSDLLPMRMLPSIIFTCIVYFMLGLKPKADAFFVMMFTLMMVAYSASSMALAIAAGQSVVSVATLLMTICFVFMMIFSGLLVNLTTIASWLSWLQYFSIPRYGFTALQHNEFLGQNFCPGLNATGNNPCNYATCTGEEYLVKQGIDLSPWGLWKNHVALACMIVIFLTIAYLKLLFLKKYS

COc1ccc(/C=N/NC(=O)c2ccccc2F)cc1CN1CCN(c2ccc(F)cc2)CC1
EC50 [1]: 3.08 µM (active) | EC50 [2]: 4.07 µM (active)

O=C1C2C(c3ccccc3)C=CC(c3ccccc3)C2C(=O)N1c1ccccn1 (stereo not given)
IC50 [3]: 7.9 µM (active) | IC50 [4]: 10.8 µM (active) | IC50 (Beta Lactamase): 59.6 µM (inactive) | IC50 (Beta-lactamase [5]): > 59.6 µM (inactive) | IC50 (Beta-lactamase [6]): 11.5 µM (inactive)

CCCCn1c(-c2ccoc2C)n[nH]c1=S
IC50 (Beta-lactamase [7]): > 59.6 µM (inactive) | IC50 (Beta-lactamase [8]): > 59.6 µM (inactive) | IC50 (Beta-lactamase [9]): > 59.6 µM (inactive)
